Experimental data: patent publication US5118811A, “Amino acid derivatives possessing prolyl endopeptidase-inhibitory activities” (Japan Tobacco Inc., priority 1989, dated 1992)
pIC50: −log10 of the molar value.

Key:
chymotrypsin = target: T1, chymotrypsin (Bos taurus, UniProt P00766); assay: Chymotrypsin-Inhibitory Activity; assay type: biochemical, bovine; conditions: read-out: Inhibition rate, chymotrypsin; for inhibition at 0.01 µM: 1 × 10^-8 M; for inhibition at 10 µM: 1 × 10^-5 M; for inhibition at 1 µM: 1 × 10^-6 M
T1 construct: purchased Sigma; host or cells: bovine pancreas
Experimental: (§1) Similarly, by following the procedure mentioned above, but employing a 50 mM Tris-HCl buffer (pH 8.0) as a buffer for measurement, a 0.2 μM solution of chymotrypsin (derived from bovine pancrease, Sigma) in the same buffer as an enzyme solution and a 200 μM solution of 7-(N-succinyl-leucyl-leucyl-valyl-tyrosyl)-4-methylcoumarinamide (Peptide Institute, Inc.) in the same buffer as a substrate solution. Each fluorescence (c1, c2 and c3) was also determined, respectively.
(§2) Using the fluorescence x1, x2 and x3 measured in the above-mentioned manner, the inhibitory rate against various proteases was calculated by the following formula where x stands for b, c, d, e or f: [formula]

trypsin = target: T2, trypsin (Bos taurus, UniProt P00760); assay: Trypsin-Inhibitory Activity; assay type: biochemical, bovine; conditions: read-out: Inhibition rate, trypsin; for inhibition at 0.01 µM: 1 × 10^-8 M; for inhibition at 10 µM: 1 × 10^-5 M; for inhibition at 1 µM: 1 × 10^-6 M
T2 construct: purchased Sigma; host or cells: bovine pancreas
T2 sequence (P00760 24-246): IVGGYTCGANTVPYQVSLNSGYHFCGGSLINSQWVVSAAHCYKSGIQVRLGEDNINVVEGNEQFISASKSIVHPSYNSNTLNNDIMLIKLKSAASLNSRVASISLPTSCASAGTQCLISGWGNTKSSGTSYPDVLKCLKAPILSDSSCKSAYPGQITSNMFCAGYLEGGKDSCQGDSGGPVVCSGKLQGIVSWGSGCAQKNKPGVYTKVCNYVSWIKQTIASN
Experimental: In the present invention, a 50 mM Tris-HCl buffer (pH 8.0) was employed as a buffer for measurement.
To a mixture of the above-mentioned buffer (850 μl), a solution of the compounds of the present invention in the same buffer (50 μl) and a 0.02 μM solution of trypsin (derived from bovine pancreas, Sigma) in the same buffer (50 μl) was added a 200 μM solution of 7-(prolyl-phenylaranyl-arginyl)-4-methylcoumarinamide (Peptide Institute, Inc.) in the same buffer (50 μl), and the mixture was incubated at 30° C. for 1 hour. The reaction mixture was immersed in ice (0° C.) to terminate the reaction, and the fluorescence (b1) was determined 1 hour later (excitation at 370 nm and emission at 440 nm). Concurrently, there were conducted the experiment wherein, in the system above, the trypsin solution was substituted for a buffer alone, and the experiment wherein the solution of the compounds of the present invention was also substituted for a buffer above. Each fluorescence (b2 and b3) was also determined respectively.
as §2

leucine aminopeptidase = assay: Leucine Aminopeptidase-Inhibitory Activity; assay type: biochemical, swine
Experimental: as §1, with “leucine aminopeptidase” for “chymotrypsin”, “swine kidney,” for “bovine pancrease,”, “7-(leucyl-4-methylcoumarinamide” for “7-(N-succinyl-leucyl-leucyl-valyl-tyrosyl)-4-methylcoumarinamide”, “(d1, d2” for “(c1, c2”, “d3)” for “c3)”
as §2

elastase = target: T3, elastase (Sus scrofa, UniProt P00772); assay: Elastase-Inhibitory Activity; assay type: biochemical, swine; conditions: read-out: Inhibition rate, elastase; for inhibition at 0.01 µM: 1 × 10^-8 M; for inhibition at 10 µM: 1 × 10^-5 M; for inhibition at 1 µM: 1 × 10^-6 M
T3 construct: purchased Sigma; host or cells: swine pancreas
Experimental: Similarly, by following the procedure mentioned above, but employing a 1 mM Tris-HCl buffer (pH 8.5) as a buffer for measurement, a 0.2 μM solution of elastase (derived from swine pancreas, Sigma) in the same buffer as an enzyme solution and a 200 μM solution of 7-(N-succinyl-aranyl-prolyl-aranyl)-4-methylcoumarinamide (Peptide Institute, Inc.) in the same buffer as a substrate solution. Each fluorescence (e1, e2 and e3) was also determined, respectively.
as §2

prolyl endopeptidase = target: T4, prolyl endopeptidase (Rattus norvegicus, UniProt O70196); assay: Prolyl Endopeptidase-Inhibitory Activity; assay type: biochemical; conditions: for inhibition at 0.01 µM: 1 × 10^-8 M; for inhibition at 0.01 µM / inhibition at 10 µM / inhibition at 1 µM: read-out: Inhibition rate, prolyl endopeptidase; for pIC50: prolyl endopeptidase extracted from rat brain, pH 7.0, 30° C., preincubated 30 minutes, 1 hour; for inhibition at 10 µM: 1 × 10^-5 M; for inhibition at 1 µM: 1 × 10^-6 M
T4 construct: prolyl endopeptidase extracted from rat brain; from tissue; host or cells: rat brain
Experimental: A mixture of a 0.1M potassium sodium phosphate buffer (pH 7.0) (2675 μl), a solution of the compounds of the present invention in a 0.1M potassium sodium phosphate buffer (pH 7.0) (100 μl) and a solution of prolyl endopeptidase extracted from rat brain in a 25 mM sodium phosphate buffer (100 μl) [123 unit/1, pH 6.8, containing 1 mM dithiothreitol and 0.5 mM EDTA, prepared by the method described in J. Neurochem., 35, 527 (1980)] was preincubated at 30° C. for 30 minutes. Thereto was added a 0.2 mM solution of 7-(N-succinyl-glycyl-prolyl)-4-methylcoumarinamide (Peptide Institute, INC.) in a 0.1M potassium sodium phosphate buffer (pH 7.0) (125 μl), and the mixture was incubated at 30° C. for 1 hour. The reaction mixture was immersed in ice (0° C.) to terminate the reaction, and the fluorescence (a1) was determined ten minutes later (excitation at 370 nm and emission at 440 nm). Concurrently, there were conducted the experiment wherein, in the above system, the prolyl endopeptidase solution was substituted for a 25 mM sodium phosphate buffer (pH 6.8, containing 1 mM dithiothreitol and 0.5 mM EDTA) and the experiment wherein the solution of the compounds of the present invention was also substituted for a 0.1M potassium sodium phosphate buffer (pH 7.0). Each fluorescence (a2 and a3) was also determined respectively [See Tanpakushitsu Kakusan Koso, 29, 127 (1984)]. The prolyl endopeptidase-inhibition rate was calculated by the following formula, and IC50, a concentration of a compound producing 50% inhibition, was estimated by semilogarithmic graph paper. [formula]

cathepsin B = target: T5, cathepsin B (Bos taurus, UniProt P07688); assay: Cathepsin B-Inhibitory Activity; assay type: biochemical, bovine; conditions: read-out: Inhibition rate, cathepsin B; for inhibition at 0.01 µM: 1 × 10^-8 M; for inhibition at 10 µM: 1 × 10^-5 M; for inhibition at 1 µM: 1 × 10^-6 M
T5 construct: purchased Sigma; host or cells: bovine spleen
Experimental: Similarly, by following the procedure mentioned above, but employing a 100 mM sodium phosphate buffer (pH 6.0; containing 1.33 mM EDTA Na2) as a buffer for measurement, a 0.02 μM solution of cathepsin B (derived from bovine spleen, Sigma) in the same buffer as an enzyme solution and a 200 μM solution of 7-(N-benzyloxycarbonyl-phenylaranyl-arginyl)-4-methylcoumarinamide (Peptide Institute, Inc.) in the same buffer as a substrate solution. Each fluorescence (f1, f2 and f3) was also determined, respectively.
as §2

T4 sequence (O70196 whole entry): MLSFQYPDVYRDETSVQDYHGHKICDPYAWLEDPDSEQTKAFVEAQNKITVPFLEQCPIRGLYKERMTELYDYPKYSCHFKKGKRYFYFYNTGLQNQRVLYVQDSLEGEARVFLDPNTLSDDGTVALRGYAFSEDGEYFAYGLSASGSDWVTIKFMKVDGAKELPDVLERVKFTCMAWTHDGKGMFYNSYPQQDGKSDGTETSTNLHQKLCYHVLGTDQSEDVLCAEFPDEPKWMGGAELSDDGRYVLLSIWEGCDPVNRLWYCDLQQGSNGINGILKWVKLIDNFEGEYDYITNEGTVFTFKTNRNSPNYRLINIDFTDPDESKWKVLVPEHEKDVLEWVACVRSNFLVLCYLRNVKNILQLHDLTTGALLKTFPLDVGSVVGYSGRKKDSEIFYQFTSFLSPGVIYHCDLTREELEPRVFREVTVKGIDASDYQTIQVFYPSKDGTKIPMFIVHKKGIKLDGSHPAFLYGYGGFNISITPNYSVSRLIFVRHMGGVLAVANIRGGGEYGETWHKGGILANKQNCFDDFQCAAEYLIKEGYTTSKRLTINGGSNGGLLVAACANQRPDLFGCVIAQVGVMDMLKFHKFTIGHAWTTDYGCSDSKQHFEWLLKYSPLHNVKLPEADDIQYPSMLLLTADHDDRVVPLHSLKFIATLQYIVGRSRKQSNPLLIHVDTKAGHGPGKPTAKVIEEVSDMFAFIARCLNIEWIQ
T3 sequence (P00772 27-266): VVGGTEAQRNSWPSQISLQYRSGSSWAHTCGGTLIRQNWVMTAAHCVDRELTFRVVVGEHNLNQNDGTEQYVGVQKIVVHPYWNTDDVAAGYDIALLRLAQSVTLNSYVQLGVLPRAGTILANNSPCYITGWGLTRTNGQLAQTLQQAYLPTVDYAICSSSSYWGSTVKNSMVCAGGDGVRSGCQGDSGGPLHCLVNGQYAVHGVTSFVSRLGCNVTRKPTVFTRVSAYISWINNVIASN

## O=C[C@@H]1CCCN1C(=O)[C@@H]1CCCN1C(=O)CN1CCCC1=O [Compound 4, N-[(2-Oxo-1-pyrrolidinyl)acetyl]-L-prolyl-L-prolinal]
chymotrypsin
  inhibition at 0.01 µM: 0%
trypsin
  inhibition at 0.01 µM: 0%
Leucine aminopeptidase; 1 × 10^-8 M
  Inhibition rate, leucine aminopeptidase: 0%
elastase
  inhibition at 0.01 µM: 0%
Prolyl endopeptidase
  inhibition at 0.01 µM: 100%
  pIC50: 9.40
Cathepsin B
  inhibition at 0.01 µM: 0%

## O=C[C@@H]1CSCN1C(=O)[C@@H]1CCCN1C(=O)CN1CCCC1=O [Compound 5, N-[(2-Oxo-1-pyrrolidinyl)acetyl]-L-prolyl-L-thioprolinal]
Prolyl endopeptidase
  pIC50: 8.52

## O=C[C@@H]1CCCN1C(=O)[C@@H]1CSCN1C(=O)CN1CCCC1=O [Compound 6, N-[(2-Oxo-1-pyrrolidinyl)acetyl]-L-thioprolyl-L-prolinal]
Prolyl endopeptidase
  pIC50: 8.82

## O=C[C@@H]1CSCN1C(=O)[C@@H]1CSCN1C(=O)CN1CCCC1=O [Compound 7, N-[(2-Oxo-1-pyrrolidinyl)acetyl]-L-thioprolyl-L-thioprolinal]
Prolyl endopeptidase
  pIC50: 8.30

## O=C1CCCN1CC(=O)N1CCC[C@H]1C(=O)N1CCSC1 [Compound 8, 3-{N-[(2-Oxo-1-pyrrolidinyl)acetyl]-L-prolyl}thiazolidine]
chymotrypsin
  inhibition at 10 µM: 0%
trypsin
  inhibition at 10 µM: 0%
Leucine aminopeptidase; 1 × 10^-5 M
  Inhibition rate, leucine aminopeptidase: 0%
elastase
  inhibition at 10 µM: 0%
Prolyl endopeptidase
  inhibition at 10 µM: 96%
  pIC50: 6.70
Cathepsin B
  inhibition at 10 µM: 0%

## O=C1CCCN1CC(=O)N1CSC[C@H]1C(=O)N1CCSC1 [Compound 9, 3-{N-[(2-Oxo-1-pyrrolidinyl)acetyl]-L-thioprolyl}thiazolidine]
chymotrypsin
  inhibition at 10 µM: 0%
trypsin
  inhibition at 10 µM: 0%
Leucine aminopeptidase; 1 × 10^-5 M
  Inhibition rate, leucine aminopeptidase: 0%
elastase
  inhibition at 10 µM: 0%
Prolyl endopeptidase
  inhibition at 10 µM: 97%
  pIC50: 6.82
Cathepsin B
  inhibition at 10 µM: 0%

## O=C[C@@H]1CCCN1C(=O)CCC(=O)N1CCCC1=O [Compound 10]
Prolyl endopeptidase
  pIC50: 7.15

## O=C[C@@H]1CCCN1C(=O)CCC(=O)NCCCN1CCCC1=O [Compound 11, N-{4-Oxo-4-[3-(2-oxo-1-pyrrolidinyl)propylamino]butanoyl}-L-prolinal]
chymotrypsin
  inhibition at 1 µM: 0%
trypsin
  inhibition at 1 µM: 0%
Leucine aminopeptidase; 1 × 10^-6 M
  Inhibition rate, leucine aminopeptidase: 0%
elastase
  inhibition at 1 µM: 0%
Prolyl endopeptidase
  inhibition at 1 µM: 97%
  pIC50: 7.60
Cathepsin B
  inhibition at 1 µM: 0%

## O=C([C@@H]1CCCN1C(=O)OCc1ccccc1)N1CCC[C@H]1C=NO [Compound 12, (2S)-1-(N-Benzyloxycarbonyl-L-prolyl)-2-pyrrolidinecarboxaldehyde oxime]
chymotrypsin
  inhibition at 10 µM: 0%
trypsin
  inhibition at 10 µM: 0%
Leucine aminopeptidase; 1 × 10^-5 M
  Inhibition rate, leucine aminopeptidase: 0%
elastase
  inhibition at 10 µM: 0%
Prolyl endopeptidase
  inhibition at 10 µM: 100%
  pIC50: 6.35
Cathepsin B
  inhibition at 10 µM: 0%

## CC(=O)ON=C[C@@H]1CCCN1C(=O)[C@@H]1CCCN1C(=O)OCc1ccccc1 [Compound 15, (2S)-1-(N-Benzyloxycarbonyl-L-prolyl)-2-pyrrolidinecarboxaldehyde O-acetyloxime]
chymotrypsin
  inhibition at 1 µM: 0%
trypsin
  inhibition at 1 µM: 0%
Leucine aminopeptidase; 1 × 10^-6 M
  Inhibition rate, leucine aminopeptidase: 0%
elastase
  inhibition at 1 µM: 0%
Prolyl endopeptidase
  inhibition at 1 µM: 100%
  pIC50: 8.35
Cathepsin B
  inhibition at 1 µM: 0%

## CC(=O)ON=C[C@@H]1CSCN1C(=O)[C@@H]1CCCN1C(=O)OCc1ccccc1 [Compound 16, (4R)-3-(N-Benzyloxycarbonyl-L-prolyl)-4-thiazolidinecarboxaldehyde O-acetyloxime]
Prolyl endopeptidase
  pIC50: 7.00

## CC(=O)ON=C[C@@H]1CSCN1C(=O)[C@@H]1CSCN1C(=O)OCc1ccccc1 [Compound 17, (4R)-3-(N-Benzyloxycarbonyl-L-thioprolyl)-4-thiazolidinecarboxaldehyde O-acetyloxime]
Prolyl endopeptidase
  pIC50: 6.51

## O=C([C@@H]1CCCN1C(=O)OCc1ccccc1)N1CCC[C@H]1C=NOCc1ccccc1 [Compound 18, (2S)-1-(N-Benzyloxycarbonyl-L-prolyl)-2-pyrrolidinecarboxaldehyde O-benzyloxime]
chymotrypsin
  inhibition at 10 µM: 0%
trypsin
  inhibition at 10 µM: 0%
Leucine aminopeptidase; 1 × 10^-5 M
  Inhibition rate, leucine aminopeptidase: 0%
elastase
  inhibition at 10 µM: 0%
Prolyl endopeptidase
  inhibition at 10 µM: 100%
  pIC50: 7.40
Cathepsin B
  inhibition at 10 µM: 0%

## N#C[C@@H]1CCCN1C(=O)[C@@H]1CCCN1C(=O)OCc1ccccc1 [Compound 19, (2S)-1-(N-Benzyloxycarbonyl-L-prolyl)-2-cyanopyrrolidine]
chymotrypsin
  inhibition at 0.01 µM: 0%
trypsin
  inhibition at 0.01 µM: 0%
Leucine aminopeptidase; 1 × 10^-8 M
  Inhibition rate, leucine aminopeptidase: 0%
elastase
  inhibition at 0.01 µM: 0%
Prolyl endopeptidase
  inhibition at 0.01 µM: 100%
  pIC50: 9.46
Cathepsin B
  inhibition at 0.01 µM: 0%

## N#C[C@@H]1CSCN1C(=O)[C@@H]1CSCN1C(=O)OCc1ccccc1 [Compound 20, (4R)-3-(N-Benzyloxycarbonyl-L-thioprolyl)-4-cyanothiazolidine]
Prolyl endopeptidase
  pIC50: 8.49

## CC(=O)ON=C[C@@H]1CSCN1C(=O)[C@@H]1CCCN1C(=O)CN1CCCC1=O [Compound 23, (4R)-3-{N-[(2-Oxo-1-pyrrolidinyl)acetyl]-L-prolyl}-4-thiazolidinecarboxaldehyde O-acetyloxime]
Prolyl endopeptidase
  pIC50: 6.19

## N#C[C@@H]1CSCN1C(=O)[C@@H]1CCCN1C(=O)CN1CCCC1=O [Compound 24, (4R)-3-{N-[(2-Oxo-1-pyrrolidinyl)acetyl]-L-prolyl}-4-cyanothiazolidine]
Prolyl endopeptidase
  pIC50: 7.47
